Assay results as given in article PMC10913051, “Bacterial Lactonases ZenA with Noncanonical Structural Features Hydrolyze the Mycotoxin Zearalenone” (ACS Catalysis, 2024).

What was measured:
ZenARe [1] = target: T1, ZenARe; assay: X-ray crystal structure (cocrystallized with ZEN, […] Å); stopped-flow tryptophan fluorescence of product binding ([…] °C, KP,net); set-up: species or system Rhodococcus erythropolis
T1 construct: gene zenA; C-terminal 6xHis-tag

ZenAScfl H286Y = target: T2, ZenAScfl H286Y (Streptomyces coelicoflavus, UniProt A0A6N9UBA7, H286Y); assay: X-ray crystal structure, cocrystallized with […] ZEN, […] Å; format: binding
T2 construct: gene G3I46_00910; C-terminal 6xHis-tag
T2 sequence (A0A6N9UBA7 entry or part of it H286Y): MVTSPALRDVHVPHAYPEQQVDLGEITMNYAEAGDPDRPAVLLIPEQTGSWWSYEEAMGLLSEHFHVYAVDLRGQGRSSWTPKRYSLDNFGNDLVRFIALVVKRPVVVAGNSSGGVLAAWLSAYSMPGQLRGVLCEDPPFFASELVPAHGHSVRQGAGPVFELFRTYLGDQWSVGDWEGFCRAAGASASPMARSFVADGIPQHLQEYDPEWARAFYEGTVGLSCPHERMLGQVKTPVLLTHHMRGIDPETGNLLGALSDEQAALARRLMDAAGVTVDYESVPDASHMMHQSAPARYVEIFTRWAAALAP

ZenARe [2] = target: T1, ZenARe; assay: stopped-flow tryptophan fluorescence ([…] °C, net dissociation constant of two-step binding); steady-state KM […]; set-up: species or system Rhodococcus erythropolis
[3] = target: the molecule itself; assay: SEC-MALS; size exclusion chromatography and multiangle light scattering of the 6xHis-tagged enzyme; conditions in the Supporting Information

**Q.** With `C[C@H](O)CCCC(=O)CCC/C=C/c1cc(O)cc(O)c1C(=O)O` [HZEN, (S,E)-2,4-dihydroxy-6-(10-hydroxy-6-oxoundec-1-en-1-yl)benzoic acid] as the molecule, how does the Kd (ZenARe [1]) read?
**A.** 10 ± 1 µM

**Q.** What about the “X-ray crystal structure, cocrystallized with 5 mM ZEN, 1.53 Å” value (ZenAScfl H286Y) of the same molecule?
**A.** a subsequently calculated Polder map revealed a better fit of product HZEN in the active site

**Q.** Which Kd (ZenARe [2]) does the source give for `C[C@H]1CCCC(=O)CCC/C=C/c2cc(O)cc(O)c2C(=O)O1` [ZEN, (S,E)-14,16-dihydroxy-3-methyl-3,4,5,6,9,10-hexahydro-1H-benzo[c][1]oxacyclotetradecine-1,7(8H)-dione] here?
**A.** 0.21 ± 0.04 µM

B1: ZEN lactonase ZenARe of Rhodococcus erythropolis PFA D8-1 (enzyme)
chain: MAEEGTRSEAADAATQARQLPDSRNIFVSHRFPERQVDLGEVVMNFAEAGSPDNPALLLLPEQTGSWWSYEPVMGLLAENFHVFAVDIRGQGRSTWTPRRYSLDNFGNDLVRFIALVIKRPVVVAGNSSGGLLAAWLSAYAMPGQIRAALCEDAPFFASELVPAYGHSVLQAAGPAFELYRDFLGDQWSIGDWKGFVEAAKASPAKAMQLFPTPDEAPQNLKEYDPEWGRAFFEGTVALHCPHDRMLSQVKTPILITHHARTIDPETGELLGALSDLQAEHAQDIIRSAGVRVDYQSHPDALHMMHLFDPARYAEILTSWSATLPAND
**Q.** With B1 as the molecule, how does the “stoichiometry N” value [3] read?
**A.** 2

B2: ZEN lactonase ZenA_(Scfl) of Streptomyces coelicoflavus (enzyme)
chain: MVTSPALRDVHVPHAYPEQQVDLGEITMNYAEAGDPDRPAVLLIPEQTGSWWSYEEAMGLLSEHFHVYAVDLRGQGRSSWTPKRYSLDNFGNDLVRFIALVVKRPVVVAGNSSGGVLAAWLSAYSMPGQLRGVLCEDPPFFASELVPAHGHSVRQGAGPVFELFRTYLGDQWSVGDWEGFCRAAGASASPMARSFVADGIPQHLQEYDPEWARVFYEGTVGLSCPHERMLGQVKTPVLLTHHMRGIDPETGNLLGALSDEQALRARRLMDSAGVTVDYESVPDASHMMHQSAPARYVEIFTRWAAALAP
**Q.** For B2, which “stoichiometry N” value [3] is on record?
**A.** 4
